# Source: US7635572B2, “Methods for conducting assays for enzyme activity on protein microarrays” (Life Technologies Corporation, priority 2004, dated 2009)
# Read-outs that look alike come from different tables or passages of the source.
# Key:
# [1] = target: plurality of kinases (Table 5) (Homo sapiens, UniProt P06241); test: Further analysis of a plurality of inhibitors and a plurality of kinases on microarray (Example IX, Table 5); type: biochemical;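 also: inhibition of each kinase by the inhibitors is given as a qualitative level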;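 as to Inhibition level, FYN: level 0 no or unclear inhibition to Level 2 substantial inhibition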;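 as to Inhibition level, MAP3K4: level 0 no or unclear inhibition to Level 2 substantial inhibition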
# plurality of kinases (Table 5) (Homo sapiens, UniProt P06241), sequence (P06241 whole entry): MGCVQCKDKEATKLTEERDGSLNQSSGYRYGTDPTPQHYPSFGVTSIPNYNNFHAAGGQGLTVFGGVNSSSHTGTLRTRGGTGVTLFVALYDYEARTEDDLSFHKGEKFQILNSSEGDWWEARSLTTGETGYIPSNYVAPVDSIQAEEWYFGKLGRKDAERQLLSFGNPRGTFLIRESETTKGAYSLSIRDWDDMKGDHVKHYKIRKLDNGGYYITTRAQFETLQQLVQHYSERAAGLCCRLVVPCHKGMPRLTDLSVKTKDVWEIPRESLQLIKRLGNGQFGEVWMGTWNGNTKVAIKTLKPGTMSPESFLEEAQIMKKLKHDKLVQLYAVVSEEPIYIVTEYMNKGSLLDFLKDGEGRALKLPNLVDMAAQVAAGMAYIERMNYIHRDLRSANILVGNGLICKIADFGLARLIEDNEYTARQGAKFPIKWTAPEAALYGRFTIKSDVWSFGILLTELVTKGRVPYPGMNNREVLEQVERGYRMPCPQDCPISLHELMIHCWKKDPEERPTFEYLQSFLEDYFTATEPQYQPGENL
# [2] = target: plurality of kinases (Table 5) (Homo sapiens, UniProt P09769); test: as above; type: biochemical; settings: plate B10
# plurality of kinases (Table 5) (Homo sapiens, UniProt P09769), sequence (P09769 whole entry): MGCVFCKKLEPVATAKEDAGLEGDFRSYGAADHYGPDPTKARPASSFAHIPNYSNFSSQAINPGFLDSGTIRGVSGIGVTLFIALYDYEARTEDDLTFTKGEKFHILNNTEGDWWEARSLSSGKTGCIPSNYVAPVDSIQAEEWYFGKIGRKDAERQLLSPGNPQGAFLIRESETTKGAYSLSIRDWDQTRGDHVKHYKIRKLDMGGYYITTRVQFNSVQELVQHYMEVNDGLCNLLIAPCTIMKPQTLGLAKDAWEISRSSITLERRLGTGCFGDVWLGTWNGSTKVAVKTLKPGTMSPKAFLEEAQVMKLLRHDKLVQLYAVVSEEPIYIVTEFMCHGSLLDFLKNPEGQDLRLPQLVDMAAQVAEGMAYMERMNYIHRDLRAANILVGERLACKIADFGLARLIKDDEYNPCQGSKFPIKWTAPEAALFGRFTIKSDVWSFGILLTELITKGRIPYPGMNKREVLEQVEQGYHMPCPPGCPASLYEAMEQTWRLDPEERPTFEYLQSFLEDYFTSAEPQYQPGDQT
# [3] = target: T1, plurality of kinases (Table 5) (Homo sapiens, UniProt P29323); test: as above; type: biochemical; settings: plate E5
# T1 sequence (P29323 19-1055): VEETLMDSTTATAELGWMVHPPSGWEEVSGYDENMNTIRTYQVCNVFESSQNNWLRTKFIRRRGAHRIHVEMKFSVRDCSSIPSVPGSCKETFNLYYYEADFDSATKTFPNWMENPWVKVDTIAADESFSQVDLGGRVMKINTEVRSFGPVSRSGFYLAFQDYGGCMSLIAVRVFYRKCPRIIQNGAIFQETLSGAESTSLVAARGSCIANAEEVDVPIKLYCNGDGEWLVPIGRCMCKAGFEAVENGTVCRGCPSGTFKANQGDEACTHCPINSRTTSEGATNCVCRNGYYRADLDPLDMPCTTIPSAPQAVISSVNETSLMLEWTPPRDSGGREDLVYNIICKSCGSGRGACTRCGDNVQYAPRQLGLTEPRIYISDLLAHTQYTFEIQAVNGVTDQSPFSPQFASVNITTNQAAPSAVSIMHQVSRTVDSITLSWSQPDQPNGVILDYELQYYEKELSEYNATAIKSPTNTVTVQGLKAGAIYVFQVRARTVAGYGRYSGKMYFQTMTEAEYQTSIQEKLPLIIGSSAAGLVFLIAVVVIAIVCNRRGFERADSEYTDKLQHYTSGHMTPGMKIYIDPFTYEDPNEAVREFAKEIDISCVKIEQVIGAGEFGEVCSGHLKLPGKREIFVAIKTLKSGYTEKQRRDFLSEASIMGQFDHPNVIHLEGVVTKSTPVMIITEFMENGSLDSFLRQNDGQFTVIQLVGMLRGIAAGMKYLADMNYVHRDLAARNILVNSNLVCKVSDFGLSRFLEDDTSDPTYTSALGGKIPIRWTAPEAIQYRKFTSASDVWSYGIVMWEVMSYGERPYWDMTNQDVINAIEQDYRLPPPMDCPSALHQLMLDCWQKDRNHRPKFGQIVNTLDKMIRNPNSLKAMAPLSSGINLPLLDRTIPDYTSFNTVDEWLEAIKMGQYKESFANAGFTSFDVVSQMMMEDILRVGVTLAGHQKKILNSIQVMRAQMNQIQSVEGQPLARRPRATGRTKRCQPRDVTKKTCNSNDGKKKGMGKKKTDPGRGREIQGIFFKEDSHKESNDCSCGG
# [4] = target: T2, plurality of kinases (Table 5) (Homo sapiens, UniProt P54762); test: as above; type: biochemical
# T2 sequence (P54762 18-984): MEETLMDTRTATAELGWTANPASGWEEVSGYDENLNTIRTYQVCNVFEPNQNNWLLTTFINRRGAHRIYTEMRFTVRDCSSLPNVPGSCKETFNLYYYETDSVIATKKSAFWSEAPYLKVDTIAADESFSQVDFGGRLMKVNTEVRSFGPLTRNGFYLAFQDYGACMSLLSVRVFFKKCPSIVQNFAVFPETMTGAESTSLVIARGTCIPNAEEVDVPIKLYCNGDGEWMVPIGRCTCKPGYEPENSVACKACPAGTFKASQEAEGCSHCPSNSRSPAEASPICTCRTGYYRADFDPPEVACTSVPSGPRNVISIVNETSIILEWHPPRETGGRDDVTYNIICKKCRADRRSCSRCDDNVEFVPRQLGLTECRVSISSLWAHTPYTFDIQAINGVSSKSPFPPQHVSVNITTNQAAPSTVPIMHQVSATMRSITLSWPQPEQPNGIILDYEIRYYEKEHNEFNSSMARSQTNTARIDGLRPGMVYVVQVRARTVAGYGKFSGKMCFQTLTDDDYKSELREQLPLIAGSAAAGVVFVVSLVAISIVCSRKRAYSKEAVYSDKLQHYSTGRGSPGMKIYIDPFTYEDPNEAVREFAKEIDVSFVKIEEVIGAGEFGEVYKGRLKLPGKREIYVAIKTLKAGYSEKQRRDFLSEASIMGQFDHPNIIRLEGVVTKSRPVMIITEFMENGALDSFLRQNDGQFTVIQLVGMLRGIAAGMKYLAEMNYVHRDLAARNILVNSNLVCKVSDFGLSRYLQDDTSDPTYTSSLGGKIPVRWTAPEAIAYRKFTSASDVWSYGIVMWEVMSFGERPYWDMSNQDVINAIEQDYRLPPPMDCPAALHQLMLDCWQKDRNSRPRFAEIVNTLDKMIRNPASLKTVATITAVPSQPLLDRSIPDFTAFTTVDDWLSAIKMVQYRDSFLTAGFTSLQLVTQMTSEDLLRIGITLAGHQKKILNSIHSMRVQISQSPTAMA
# [5] = target: plurality of kinases (Table 5) (Homo sapiens, UniProt Q00536); test: as above; type: biochemical; settings: plate A3; inhibitor 100 uM
# plurality of kinases (Table 5) (Homo sapiens, UniProt Q00536), sequence (Q00536 whole entry): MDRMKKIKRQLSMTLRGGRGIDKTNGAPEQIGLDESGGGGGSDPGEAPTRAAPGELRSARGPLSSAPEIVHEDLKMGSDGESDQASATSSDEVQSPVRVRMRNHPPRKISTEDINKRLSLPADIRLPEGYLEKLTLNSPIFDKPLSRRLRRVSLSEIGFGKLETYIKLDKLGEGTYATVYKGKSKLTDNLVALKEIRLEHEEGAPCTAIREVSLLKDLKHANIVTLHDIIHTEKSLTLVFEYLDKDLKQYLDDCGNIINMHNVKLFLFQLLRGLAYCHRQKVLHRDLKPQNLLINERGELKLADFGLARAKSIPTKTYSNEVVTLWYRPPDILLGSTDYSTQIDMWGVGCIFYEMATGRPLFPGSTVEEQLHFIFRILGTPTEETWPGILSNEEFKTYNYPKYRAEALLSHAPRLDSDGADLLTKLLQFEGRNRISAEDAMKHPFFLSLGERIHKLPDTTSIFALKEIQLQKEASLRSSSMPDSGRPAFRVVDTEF
# [6] = target: plurality of kinases (Table 5) (Homo sapiens, UniProt Q05655); test: as above; type: biochemical; settings: plate B2
# plurality of kinases (Table 5) (Homo sapiens, UniProt Q05655), sequence (Q05655 whole entry): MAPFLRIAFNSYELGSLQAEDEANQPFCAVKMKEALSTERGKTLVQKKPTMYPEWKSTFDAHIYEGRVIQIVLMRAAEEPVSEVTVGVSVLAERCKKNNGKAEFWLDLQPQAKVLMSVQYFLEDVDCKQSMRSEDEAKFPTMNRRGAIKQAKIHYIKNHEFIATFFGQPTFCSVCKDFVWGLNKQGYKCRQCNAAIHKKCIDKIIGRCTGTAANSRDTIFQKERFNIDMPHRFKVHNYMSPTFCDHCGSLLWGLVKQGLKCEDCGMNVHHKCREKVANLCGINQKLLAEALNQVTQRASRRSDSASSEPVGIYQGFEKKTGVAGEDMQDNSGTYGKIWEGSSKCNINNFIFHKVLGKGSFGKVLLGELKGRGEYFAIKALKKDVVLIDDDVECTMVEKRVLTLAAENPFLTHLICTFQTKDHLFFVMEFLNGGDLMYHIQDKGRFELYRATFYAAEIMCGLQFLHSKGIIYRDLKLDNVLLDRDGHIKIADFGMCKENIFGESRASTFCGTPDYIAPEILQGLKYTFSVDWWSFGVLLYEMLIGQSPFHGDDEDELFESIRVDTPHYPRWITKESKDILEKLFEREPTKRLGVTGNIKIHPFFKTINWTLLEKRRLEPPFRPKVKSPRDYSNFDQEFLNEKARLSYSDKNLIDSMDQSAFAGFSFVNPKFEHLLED
# [7] = target: T3, plurality of kinases (Table 5) (Homo sapiens, UniProt Q8IV63); test: as above; type: biochemical; settings: plate C12
# T3 sequence (Q8IV63 1-474): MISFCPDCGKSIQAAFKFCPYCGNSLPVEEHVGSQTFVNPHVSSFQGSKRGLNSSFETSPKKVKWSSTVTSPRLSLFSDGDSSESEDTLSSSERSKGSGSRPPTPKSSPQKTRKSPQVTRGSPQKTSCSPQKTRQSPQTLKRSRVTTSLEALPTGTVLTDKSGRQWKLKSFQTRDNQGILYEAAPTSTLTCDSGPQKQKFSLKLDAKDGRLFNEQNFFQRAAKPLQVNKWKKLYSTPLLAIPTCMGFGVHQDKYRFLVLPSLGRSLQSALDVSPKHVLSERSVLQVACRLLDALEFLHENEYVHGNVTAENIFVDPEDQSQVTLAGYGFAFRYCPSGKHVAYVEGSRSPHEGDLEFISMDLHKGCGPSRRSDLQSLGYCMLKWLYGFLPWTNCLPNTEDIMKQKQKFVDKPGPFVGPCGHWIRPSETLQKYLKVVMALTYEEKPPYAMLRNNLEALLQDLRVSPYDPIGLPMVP
# [8] = target: plurality of kinases (Table 5) (Homo sapiens, UniProt Q9Y6R4); test: as above; type: biochemical; settings: plate E7; inhibitor 100 uM
# plurality of kinases (Table 5) (Homo sapiens, UniProt Q9Y6R4), sequence (Q9Y6R4 whole entry): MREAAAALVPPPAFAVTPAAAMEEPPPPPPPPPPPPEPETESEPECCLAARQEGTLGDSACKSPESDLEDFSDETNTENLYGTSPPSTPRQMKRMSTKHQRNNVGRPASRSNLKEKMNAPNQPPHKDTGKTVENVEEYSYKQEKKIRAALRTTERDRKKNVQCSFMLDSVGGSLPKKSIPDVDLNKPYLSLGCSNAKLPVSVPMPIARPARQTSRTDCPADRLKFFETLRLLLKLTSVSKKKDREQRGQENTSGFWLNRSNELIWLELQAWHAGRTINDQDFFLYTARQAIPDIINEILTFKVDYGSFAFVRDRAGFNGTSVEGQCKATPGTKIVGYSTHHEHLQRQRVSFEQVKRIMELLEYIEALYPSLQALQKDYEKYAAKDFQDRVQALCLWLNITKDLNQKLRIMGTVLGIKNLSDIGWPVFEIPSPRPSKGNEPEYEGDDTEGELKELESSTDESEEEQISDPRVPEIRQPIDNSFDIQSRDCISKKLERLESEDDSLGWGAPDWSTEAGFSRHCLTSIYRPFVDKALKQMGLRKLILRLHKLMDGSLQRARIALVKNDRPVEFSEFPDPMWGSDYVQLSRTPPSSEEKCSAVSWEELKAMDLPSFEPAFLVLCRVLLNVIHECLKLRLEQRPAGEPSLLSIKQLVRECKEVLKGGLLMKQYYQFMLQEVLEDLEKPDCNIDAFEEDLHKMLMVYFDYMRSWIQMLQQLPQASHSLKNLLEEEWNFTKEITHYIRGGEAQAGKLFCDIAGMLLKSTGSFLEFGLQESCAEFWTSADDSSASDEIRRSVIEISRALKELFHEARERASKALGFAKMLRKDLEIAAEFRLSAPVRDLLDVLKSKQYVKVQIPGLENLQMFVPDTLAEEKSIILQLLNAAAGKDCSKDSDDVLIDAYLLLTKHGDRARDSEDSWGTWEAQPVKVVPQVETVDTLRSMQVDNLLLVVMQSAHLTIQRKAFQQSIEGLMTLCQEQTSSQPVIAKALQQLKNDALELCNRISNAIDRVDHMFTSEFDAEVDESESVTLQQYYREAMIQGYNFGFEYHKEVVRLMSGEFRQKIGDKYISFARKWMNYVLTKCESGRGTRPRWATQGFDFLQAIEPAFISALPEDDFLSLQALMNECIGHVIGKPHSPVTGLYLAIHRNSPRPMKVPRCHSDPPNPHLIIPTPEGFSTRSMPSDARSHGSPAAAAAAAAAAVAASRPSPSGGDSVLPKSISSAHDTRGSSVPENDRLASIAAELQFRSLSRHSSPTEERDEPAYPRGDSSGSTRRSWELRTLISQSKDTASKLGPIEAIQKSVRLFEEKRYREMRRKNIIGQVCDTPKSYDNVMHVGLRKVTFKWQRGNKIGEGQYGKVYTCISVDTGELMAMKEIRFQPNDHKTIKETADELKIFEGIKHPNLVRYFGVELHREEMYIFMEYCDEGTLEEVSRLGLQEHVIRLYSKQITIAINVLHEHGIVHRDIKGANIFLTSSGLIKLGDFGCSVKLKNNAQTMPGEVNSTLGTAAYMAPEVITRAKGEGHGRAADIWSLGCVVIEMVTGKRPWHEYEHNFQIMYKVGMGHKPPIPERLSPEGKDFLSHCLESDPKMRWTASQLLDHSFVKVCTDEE
# 39 kinases (Table 4) = settings: known general specificities of the inhibitors, Table 3; cited from earlier work
# [9] = plate A4, Domain 0, inhibitor 100 uM
SMILES,"Inhibition level, FYN [1, 9]","Inhibition level, FGR ([2]; inhibitor 100 uM)","Inhibition level, EPHB2 ([3]; inhibitor 100 uM)","Inhibition level, EPHB1 ([4]; plate B8, inhibitor 100 uM)","Inhibition level, PCTK1 [5]","Inhibition level, PRKCD ([6]; inhibitor 100 uM)","Inhibition level, LOC51231 ([7]; inhibitor 100 uM)","Inhibition level, MAP3K4 [8]",General Specificity (known) (39 kinases (Table 4)),also measured
N#C/C(=C/c1ccc(O)c(O)c1)C(=O)NCc1ccccc1 [AG 490],2,2,2,0,0,0,0,2,tyrosine,–
COc1cc2ncnc(Nc3cccc(Cl)c3)c2cc1OC [AG 1478],2,2,2,2,0,0,0,1,–,–
O=c1c(-c2ccc(O)cc2)coc2cc(O)cc(O)c12 [Genistein],2,2,2,1,1,0,2,1,tyrosine,"Inhibition level, FYN ([1]; plate A4, Domain 0, Genistein <3.7 mM): 1; Inhibition level, FGR ([2]; Genistein, conc. not given): 2; Inhibition level, EPHB2 ([3]; Genistein <3.7 mM): 0; Inhibition level, EPHB1 ([4]; plate B8, Genistein, conc. not given): 0; Inhibition level, PRKCD ([6]; Genistein, conc. not given): 0; Inhibition level, LOC51231 ([7]; Genistein <3.7 mM): 0"
O=S(=O)(NCCNC/C=C/c1ccc(Br)cc1)c1cccc2cnccc12 [H-89],2,2,2,1,2,1,2,1,serine/threonine,–
CC(C)(C)n1nc(-c2ccc(Cl)cc2)c2c(N)ncnc21 [PP2],–,2,2,2,1,0,0,2,tyrosine,–
O=c1c(O)c(-c2ccc(O)c(O)c2)oc2cc(O)cc(O)c12 [Quercetin],–,2,2,0,0,0,0,0,–,–
Cn1cc(C2=C(c3cn(CCCSC(=N)N)c4ccccc34)C(=O)NC2=O)c2ccccc21 [Ro-31-8220],2,2,2,0,0,0,2,2,serine/threonine,"Inhibition level, FYN ([1]; plate A4, Domain 0, Ro-31-8220 90 uM): 0; Inhibition level, FGR ([2]; Ro-31-8220, conc. not given): 2; Inhibition level, EPHB2 ([3]; Ro-31-8220 90 uM): 0; Inhibition level, EPHB1 ([4]; plate B8, Ro-31-8220, conc. not given): 2; Inhibition level, PRKCD ([6]; Ro-31-8220, conc. not given): 2; Inhibition level, LOC51231 ([7]; Ro-31-8220 90 uM): 0"
CC(=O)c1c(O)c(C)c(O)c(Cc2c(O)c3c(c(C(=O)/C=C/c4ccccc4)c2O)OC(C)(C)C=C3)c1O [Rottlerin (Mallotoxin)],2,2,2,1,0,0,0,1,–,–
CN[C@@H]1C[C@H]2O[C@@](C)([C@@H]1OC)n1c3ccccc3c3c4c(c5c6ccccc6n2c5c31)C(=O)NC4 [Staurosporine],–,–,–,–,–,–,–,–,broad,"Inhibition level, FYN [1]: 2; Inhibition level, FGR ([2]; Staurosporine, conc. not given): 2; Inhibition level, EPHB1 [4]: 2; Inhibition level, LOC51231 ([7]; Staurosporine 21.5 uM): 0"
